Source: patent publication US5693609A, “Acylated insulin analogs” (Eli Lilly and Company, priority 1994, dated 1997)

Experiments:
male rats = conditions: 25 U/mL, cited from earlier work; for hypoglycemic effect, administered intramuscularly: intramuscularly (FIG. 6 of Hashimoto et al.); for hypoglycemic effect, administered intravenously: intravenously (FIG. 5 of Hashimoto et al.)
conscious dog model = assay: Plasma glucose after subcutaneous injection in conscious dog model; assay type: in vivo, beagles; conditions: for Plasma glucose concentration: n = 1
Method: Experiments were conducted in overnight-fasted, conscious, adult (1-2 years of age) male and female beagles weighing 8-15 kg. At least ten days prior to the study, animals were anesthetized with isoflurane, and a cut-down was made in the left or right inguinal region. Silastic catheters were inserted into the femoral artery and into the proximal caudal femoral vein and secured with 4-0 silk suture. The free ends of the catheters were passed subcutaneously to the back using a trocar needle. The catheters were then filled with a glycerol/heparin solution (3:1, v/v; final heparin concentration of 250 KIU/ml), and the free ends were knotted and placed in a subcutaneous pocket to allow complete closure of the skin. Keflex was administered both pre-operatively (20 mg/kg, IV and 20 mg/kg, I.M.) and post-operatively (250 mg, p.o. once daily for seven days) to prevent infections. Torbugesic (1.5 mg/kg, I.M.) was administered post-operatively to control pain. Blood was drawn just prior to the study day to determine the health of the animal. Only animals with hematocrits above 38% and leukocyte counts below 16,000/mm^3 were used. The afternoon before the experiment, the free ends of the catheters were exteriorized from the subcutaneous pocket through a small incision made under local anesthesia (2% lidocaine), and the dog was fitted with a tether system jacket and collar assembly. The morning of the experiment, the contents of the arterial catheter were aspirated (only the arterial line was used in these studies), the catheter was flushed with saline, and an extension line (protected by a stainless steel tether) was attached to the catheter. The dog was placed in a metabolic cage, and the catheter extension line and tether was attached to a swivel system to allow the dog to move freely about the cage. After a 15 minute rest period (45 minutes, controls), blood (2-3.5 ml) was drawn for determination of the plasma glucose concentration. A second baseline sample was drawn 15 minutes later (0 time). Test substance (phosphate buffered saline or […] of B28-N^ε -Palmitoyl Lys^B28 Pro^B29 -human insulin; this does is the molar equivalent of 1.75 U/kg of human insulin) was administered subcutaneously in the dorsal of the neck.
Arterial blood samples (2-3.5 ml) were then taken at least every 30 minutes for the next two (controls) to six (B28-N^ε -palmitoyl Lys^B28 Pro^B29 -human insulin) hours. Samples were collected in vacuum blood collection tubes containing disodium EDTA and immediately placed on ice. The samples were centrifuged, and the resulting plasma was transferred to polypropylene test tubes and stored on ice or refrigerated for the duration of the study.
At the conclusion of the experiment, the animal was anesthetized (isoflurane); the catheter was flushed with fresh saline and filled with the glycerol/heparin mixture; the free end of the catheter was knotted and placed subcutaneously as described earlier; and antibiotic was administered (300 mg Keflex, I.M.). Plasma glucose concentrations were determined the day of the study using a glucose oxidase method in a Beckman glucose analyzer. Values are listed as the mean ± the standard error of the mean (SEM).

B1-N^α -palmitoyl insulin
hypoglycemic effect, administered intramuscularly (male rats): only a short hypoglycemic effect | hypoglycemic effect, administered intravenously (male rats): very low activity

B28-N^ε -Palmitoyl Lys^B28 Pro^B29 -human insulin
Plasma glucose concentration (conscious dog model; 30 minutes after 10.5 subcutaneously): 114 mg/dL | Plasma glucose concentration (conscious dog model; 60 minutes after 10.5 subcutaneously): 107 mg/dL | Plasma glucose concentration (conscious dog model; 90 minutes after 10.5 subcutaneously): 102 mg/dL | Plasma glucose concentration (conscious dog model; 120 minutes after 10.5 subcutaneously): 99 mg/dL | Plasma glucose concentration (conscious dog model; 150 minutes after 10.5 subcutaneously): 101 mg/dL | Plasma glucose concentration (conscious dog model; 180 minutes after 10.5 subcutaneously): 100 mg/dL | Plasma glucose concentration (conscious dog model; 210 minutes after 10.5 subcutaneously): 100 mg/dL | Plasma glucose concentration (conscious dog model; 240 minutes after 10.5 subcutaneously): 98 mg/dL | Plasma glucose concentration (conscious dog model; 270 minutes after 10.5 subcutaneously): 87 mg/dL | Plasma glucose concentration (conscious dog model; 300 minutes after 10.5 subcutaneously): 82 mg/dL | Plasma glucose concentration (conscious dog model; 330 minutes after 10.5 subcutaneously): 79 mg/dL | Plasma glucose concentration (conscious dog model; 360 minutes after 10.5 subcutaneously): 75 mg/dL | decrease in the plasma glucose concentration (conscious dog model; six hours post-injection, vs baseline): 35% | activity in conscious dog model (in words) (conscious dog model; subcutaneous, 10.5): insulin-like activity | Plasma glucose concentration (conscious dog model; time 0 minutes (baseline), overnight-fasted dog): 116 mg/dL | Plasma glucose concentration (conscious dog model; time -15 minutes (baseline, before injection), overnight-fasted dog): 116 mg/dL

B1,B29-N^α N^ε -dipalmitoyl insulin [B1,B29-Nα, N^ε -dipalmitoyl insulin]
hypoglycemic effect, administered intramuscularly (male rats): negligible effect | hypoglycemic effect, administered intravenously (male rats): very low activity
